Test results from patent US20100247707A1, “DIPEPTIDES AS FEED ADDITIVES” (EVONIK DEGUSSA GmbH, priority 2009, published 2010).

Experiments:
[1] = tested on: digestive enzymes from chicken; assay: In vitro digestion of non-natural dipeptides LD-I / DL-II with digestive enzymes from chicken; assay type: in vitro ADME; settings: for portion of dipeptide cleaved: after 5 hours, in vitro reaction conditions; for speed of cleavage / digestion: non-natural dipeptides
Description: (§1) For this, the enzymes were isolated from the digestive tracts of the fishes and shrimps. The chemically synthesized dipeptides L-EAA-D-Met (LD-I) and D-Met-L-EAA (DL-II) were then reacted with the enzyme solutions obtained. For better comparability of the digestibilities of dipeptides of various species, identical conditions were selected for the in vitro digestion studies (37° C., pH 9). All non-natural dipeptides L-EAA-D-Met (LD-I) and D-Met-L-EAA (DL-II) are cleaved by digestive enzymes of the omnivorous mirror carp (see FIG. 7), of the herbivorous grass carp (see FIG. 8), of the carnivorous rainbow trout (see FIG. 11), of the omnivorous whiteleg shrimp (see FIG. 10) and of the chicken (see FIG. 17). The cleavages of D-Met-L-EAA (DL-II) proceed somewhat more slowly than the cleavages of the analogous L-EAA-D-Met (LD-I) dipeptides. With digestive enzymes of the Tilapia (see FIG. 9), in contrast, D-Met-L-EAA (DL-II) could be cleaved more quickly than L-EAA-D-Met (LD-I) dipeptides. […] After just 5 hours, under in vitro reaction conditions the bulk of the lysine-containing dipeptides had been cleaved by all of the digestive enzymes used.
a) Isolation of the Digestive Enzymes from Chicken
The digestive enzymes were isolated according to the method of EID and MATTY (Aquaculture 1989, 79, 111-119). For this, the intestines were removed from a chicken and processed as described in Example 24.
(§2) b) Procedure for the In Vitro Digestion Studies
(§3) D-Met-L-EAA (DL-II) or L-EAA-D-Met (LD-I) was taken up in TRIS/HCl buffer solution and the enzyme solution was added. As comparison and to assess the rate of purely chemical cleavage, a blank without enzyme solution was prepared in each case. A sample was taken from time to time and its composition was detected and quantified by means of a calibrated HPLC. The conversion was determined as the quotient of the area of methionine and the area of D-Met-L-EAA (DL-II) or L-EAA-D-Met (LD-I) (see Table 10, FIG. 17).

[2] = tested on: digestive enzymes from mirror carp; assay: In vitro digestion of non-natural dipeptides LD-I / DL-II with digestive enzymes from mirror carp; assay type: in vitro ADME, Cyprinus carpio morpha noblis; settings: for portion of dipeptide cleaved: after 5 hours, in vitro reaction conditions; for speed of cleavage / digestion: non-natural dipeptides
Description: as §1
a) Isolation of the Digestive Enzymes from Mirror Carp (Cyprinus carpio morpha noblis)
The digestive enzymes were isolated according to the method of EID and MATTY (Aquaculture 1989, 79, 111-119). For this, the intestines were removed from five one-year-old mirror carp (Cyprinus carpio morpha noblis) and processed as described in Example 18.
as §2
as §3, with “case (see Table 4).” for “case.”, “(see” for “(see Table 10,”, “7).” for “17).”

[3] = tested on: digestive enzymes of the Tilapia; assay: In vitro digestion of non-natural dipeptides LD-I / DL-II with digestive enzymes from Tilapia; assay type: in vitro ADME; settings: for portion of dipeptide cleaved: after 5 hours, in vitro reaction conditions; for speed of cleavage / digestion: non-natural dipeptides
Description: as §1

[4] = tested on: digestive enzymes from rainbow trout; assay: In vitro digestion of non-natural dipeptides LD-I / DL-II with digestive enzymes from rainbow trout; assay type: in vitro ADME, Oncorhynchus mykiss; settings: for portion of dipeptide cleaved: after 5 hours, in vitro reaction conditions; for speed of cleavage / digestion: non-natural dipeptides
Description: as §1
a) Isolation of the Digestive Enzymes from Rainbow Trout (Oncorhynchus mykiss)
The digestive enzymes were isolated according to the method of EID and MATTY (Aquaculture 1989, 79, 111-119). For this, the intestines were removed from six one-year-old rainbow trout (Oncorhynchus mykiss) and processed as described in Example 18.
as §2
The in vitro investigations were carried out similarly to Example 19 (see Table 6, FIG. 11).

[5] = tested on: digestive enzymes of the herbivorous grass carp; assay: In vitro digestion of non-natural dipeptides LD-I / DL-II with digestive enzymes from grass carp; assay type: in vitro ADME; settings: for portion of dipeptide cleaved: after 5 hours, in vitro reaction conditions; for speed of cleavage / digestion: non-natural dipeptides
Description: as §1

[6] = tested on: digestive enzymes from whiteleg shrimps; assay: In vitro digestion of non-natural dipeptides LD-I / DL-II with digestive enzymes from whiteleg shrimps; assay type: in vitro ADME, Litopenaeus vannamei; settings: whiteleg shrimp enzymes; for portion of dipeptide cleaved: after 5 hours, in vitro reaction conditions; for speed of cleavage / digestion: non-natural dipeptides
Description: as §1
a) Isolation of the Digestive Enzymes from Whiteleg Shrimps (Litopenaeus vannamei)
The digestive enzymes were isolated according to the method of Ezquerra and Garcia-Carreno (J. Food Biochem. 1999, 23, 59-74). For this, the hepatopancreas was removed from five kilograms of whiteleg shrimps (Litopenaeus vannamei) and comminuted in a mixer together with crushed ice. Further processing was carried out similarly to Example 18.
as §2
The in vitro investigations were carried out similarly to Example 19 (see Table 8, FIG. 10).

ruminants = settings: in ruminants, WO00/28835; cited from earlier work
Litopenaeus vannamei = settings: omnivorous shrimps Litopenaeus vannamei, Forster and Dominy 2006; cited from earlier work

Row | Molecule | portion of dipeptide cleaved [1] | speed of cleavage / digestion [1] | portion of dipeptide cleaved [2] | speed of cleavage / digestion [2] | portion of dipeptide cleaved [3] | speed of cleavage / digestion [3] | portion of dipeptide cleaved [4] | speed of cleavage / digestion [4] | portion of dipeptide cleaved [5] | speed of cleavage / digestion [5] | portion of dipeptide cleaved [6] | speed of cleavage / digestion [6] | bioavailability (ruminants) | effectiveness in feeding tests (Litopenaeus vannamei)
1 | CSCC[C@@H](N)C(=O)N[C@@H](CCCCN)C(=O)O.Cl.Cl (racemic) [DL-IIe, D-Met-L-Lys×2HCl] | bulk | particularly quickly | bulk | particularly quickly | bulk | particularly quickly | bulk | particularly quickly | bulk | particularly quickly | bulk | particularly quickly |  | 
2 | CSCCC(O)C(=O)OC(C)C (racemic) [HMBi, racemic iso-propyl ester of MHA] |  |  |  |  |  |  |  |  |  |  |  |  | at least 50% | 
3 | CSCCC(N)C(=O)O (racemic) [DL-methionine] |  |  |  |  |  |  |  |  |  |  |  |  |  | equally as effective as L-methionine
4 | L-Lys-D-Met×2HCl [LD-Ie] | bulk | particularly quickly | bulk | particularly quickly | bulk | particularly quickly | bulk | particularly quickly | bulk | particularly quickly | bulk | particularly quickly |  | 
